# Laboratory results: PubChem BioAssay AID1053144 (Broad Institute, 2014)
# Test system: NPC TCF/LEF luciferase reporter, Wnt3a EC25, 24 h
# Assay: TCF/LEF reporter activation in neural progenitors – cell-based, iPS-derived NPC, luciferase, Wnt3a, cherry-pick, dose response (AID 1053144);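 further: Wnt3a stimulus is conditioned medium from Wnt3a-transfected mouse L cells at 5% in well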
row,Structure (SMILES),AC30 [µM]
1,CCc1cc2c(=O)[nH]c(-c3ccccn3)nc2s1,10.2
2,Cn1c(CCNC(=O)c2ccco2)nc2cc(NC(=O)c3ccco3)ccc21,11.8
3,COCCNC(=O)c1cc(-c2cccs2)on1,16.9
4,COC(=O)CCc1sc(Nc2ccccc2)nc1-c1ccc(OC)cc1,12.9
5,Cc1[nH]c2ccccc2c1/C=N/Nc1nc2ccccc2[nH]1,5.61
6,COc1ccc(C(=O)COC(=O)c2sccc2C)cc1OC,11.8
7,Cc1ccc(/C=N/Nc2nc3ccccc3[nH]2)s1,16.1
8,O=C(O)c1ccc(N=Nc2c(O)[nH]c3cc(Cl)ccc23)cc1,4.78
9,CCCCOC(=O)Nc1ccc(C(=O)OC)cc1,11.7
10,CC(=O)N(C)c1ccc(NC(=O)c2ccco2)cc1,11.6
11,O=C(c1cc(-c2cccc(O)c2)on1)N1CCCCCC1,4.78
12,COc1cccc(-c2csc(NC(=O)C3CC3)n2)c1,13.9
13,CCCC(=O)Nc1ccc(C(=O)COC(=O)C2CC2)cc1,5.63
14,COc1ccc(-c2ccc(SCC(=O)Nc3cc(C)on3)nn2)cc1OC,15.1
15,Cc1ccc2cc(/C=C/C(=O)c3ccco3)c(Cl)nc2c1,16.8
16,O=C(Nc1ccc(Br)cn1)c1ccc(Br)s1,4.78
17,Oc1ccccc1-c1nnc(COc2ccc(Cl)cc2Cl)o1,10.5
18,COc1ccc(NC(=O)n2ncc3c(C)cccc32)cc1,4.78
19,Cc1cc(O)c(NC(=O)c2cccc([N+](=O)[O-])c2)cc1C,11.2
20,COc1ccc(NC(=O)c2ccccc2NC(=O)C2CCCCC2C(=O)O)cc1 (stereo unspecified),19.3
21,CCOc1ccc(-c2nnc(-c3ccccc3)n2-c2ccccc2)cc1,12.4
22,Cc1cc(N(C)C)ccc1N=Nc1ccc2ncccc2c1,2.2
23,CC(=O)Nc1ccc2nc3ccccc3nc2c1,15.3
24,Cc1ccc(COc2ccc3c(c2)OCO3)cc1,17
25,O=C(Nc1ncccc1O)c1ccc(Oc2ccccc2)cc1,12.3
26,COc1ccc2c(c1)c(/C=N/Nc1nc3ccccc3[nH]1)c(C)n2C,12.1

row,Structure (SMILES),AC30 [µM]
1,O=C(CCc1nnc(C2CCCCC2)o1)N1CCN(c2ccccc2F)CC1,8.97
2,Fc1ccccc1-c1ccc(/C=N/Nc2nc3ccccc3[nH]2)o1,17.3
3,O=[N+]([O-])c1ccccc1-c1nc(-c2ccc(Br)o2)no1,4.78
4,O=C(/C=C/c1ccco1)Nc1ccc2c(c1)OCO2,12.1
5,O=C(c1ccccc1)c1ccc2nc(-c3ccco3)c(-c3ccco3)nc2c1,8.23
6,O=C(Cc1nc2ccccc2[nH]1)c1ccc([N+](=O)[O-])cc1,7.12
7,O=C(CCCCCCC(=O)Nc1ccccc1)NO,1.47
8,Cc1ccc2nc(-c3ccc(NS(=O)(=O)c4ccc(F)cc4)cc3)sc2c1,4.78
9,O=C(/C=C/c1ccco1)NCCc1ccccc1,5.05
10,CCOc1ccc(CCNC(=O)/C=C/c2ccco2)cc1OCC,13.5
11,Cc1ccc2cc(NC(=O)c3cccc(F)c3)ccc2n1,10.5
12,O=c1/c(=C\c2ccc(F)cc2)sc2n1CCCN=2,12.5
13,CC1(C)CC(=O)/C(=N/Nc2ccc(Cl)cc2)CO1,4.78
14,Cc1ccc(-n2ncc3c(Nc4cccc(C(=O)O)c4)ncnc32)cc1,4.78
15,Nc1ccc2nc3c(=O)n(C4CCCCC4)c(=O)[nH]c3nc2c1,10.5
16,Nc1ccccc1C(=O)/C=C/c1ccc2c(c1)OCO2,2.2
17,COCCNC(=O)c1ccc2c3n(nc2c1)-c1ccc(C)cc1CO3,10.7
18,CCCc1cc(C(=O)Nc2cccc(C(C)=O)c2)no1,10.5
19,CCOC(=O)N1CCC(Nc2c(NCCCN3CCN(c4ccc(OC)cc4)CC3)c(=O)c2=O)CC1,19.5
20,CCC(=O)Nc1sc(C(=O)Nc2ccccc2)c(C)c1C(=O)OC,9.81
21,c1ccc(-c2cc(-c3ccccc3)on2)cc1,4.78
22,O=C1c2ccccc2C(=O)C1c1ccc(O)cc1,14.7
23,O=C(COc1ccc(F)cc1Br)N1CCc2ccccc21,4.78
24,N/C(=N\OC(=O)c1ccco1)c1ccc(Cl)cc1,11.8
25,COc1ccc2sc(NC(=O)CC(C)C)nc2c1,13.4
